Literature values, collected in patent US9622981B2, “Liquid-filled hard gel capsule pharmaceutical formulations” (Mylan Inc., priority 2011, dated 2017).

Experiments:
[1] = ordinary conditions
[2] = not given; remark: listed apart in the source

SMILES: C[C@]12C=CC(=O)N[C@@H]1CC[C@@H]1[C@@H]2CC[C@]2(C)[C@@H](C(=O)Nc3cc(C(F)(F)F)ccc3C(F)(F)F)CC[C@@H]12 [Dutasteride, (5α,17β)-N-[2,5 bis(trifluoromethyl)phenyl]-3-oxo-4-azaandrost-1-ene-17-carboxamide]
- solubility in water: insoluble
- stability [1]: stable under ordinary conditions
- partition coefficient, Log P [2]: 5.609±0.618
